Results taken from ChEMBL document CHEMBL6177998, “Rational Design of Dual Degraders by Incorporating Molecular Glue Structural Features into PROTAC Degraders” (J Med Chem, 2025).
pIC50: −log10 of the molar value. Active and inactive are the calls of the source. The calls are words filed in the database; no cut-off is given here.

Legend:
[1] = tested on: Protein cereblon/Androgen receptor (Homo sapiens), P10275+Q96SW2 [UNDEFINED MUTATION]; test: Induction of AR-V7 degradation in human 22Rv1 cells transfected with CRBN siRNA at 30 nM incubated for 24 hrs by Western blot analysis; type: cell-based
Chain of Protein cereblon/Androgen receptor (Homo sapiens), P10275+Q96SW2 [UNDEFINED MUTATION] (P10275 whole entry, looked up, stated change not applied, canonical isoform): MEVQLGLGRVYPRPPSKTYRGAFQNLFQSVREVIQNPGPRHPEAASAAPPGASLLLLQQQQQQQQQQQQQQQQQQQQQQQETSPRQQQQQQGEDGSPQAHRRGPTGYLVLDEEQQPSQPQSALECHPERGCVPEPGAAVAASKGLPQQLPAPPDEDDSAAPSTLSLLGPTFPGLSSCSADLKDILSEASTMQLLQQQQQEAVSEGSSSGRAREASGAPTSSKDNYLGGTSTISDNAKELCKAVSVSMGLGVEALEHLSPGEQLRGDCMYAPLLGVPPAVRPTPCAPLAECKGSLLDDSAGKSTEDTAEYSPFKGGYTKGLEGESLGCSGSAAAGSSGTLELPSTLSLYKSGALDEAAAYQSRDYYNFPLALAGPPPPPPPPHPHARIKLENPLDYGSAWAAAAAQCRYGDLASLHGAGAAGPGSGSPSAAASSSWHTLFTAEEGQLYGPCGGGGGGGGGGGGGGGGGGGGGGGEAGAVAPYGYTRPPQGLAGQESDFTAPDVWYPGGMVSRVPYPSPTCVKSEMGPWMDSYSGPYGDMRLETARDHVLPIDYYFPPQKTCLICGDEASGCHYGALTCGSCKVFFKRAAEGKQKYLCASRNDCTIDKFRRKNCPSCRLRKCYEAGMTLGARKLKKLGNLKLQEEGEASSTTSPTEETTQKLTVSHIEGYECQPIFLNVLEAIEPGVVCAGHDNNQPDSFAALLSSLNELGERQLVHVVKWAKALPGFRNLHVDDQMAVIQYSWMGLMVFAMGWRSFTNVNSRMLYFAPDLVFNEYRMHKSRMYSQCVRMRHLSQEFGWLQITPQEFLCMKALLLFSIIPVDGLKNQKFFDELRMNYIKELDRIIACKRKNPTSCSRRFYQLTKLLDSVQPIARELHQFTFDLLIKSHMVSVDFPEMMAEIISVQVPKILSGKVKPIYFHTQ
Chain of Protein cereblon/Androgen receptor (Homo sapiens), P10275+Q96SW2 [UNDEFINED MUTATION] (Q96SW2 whole entry, looked up, stated change not applied, canonical isoform): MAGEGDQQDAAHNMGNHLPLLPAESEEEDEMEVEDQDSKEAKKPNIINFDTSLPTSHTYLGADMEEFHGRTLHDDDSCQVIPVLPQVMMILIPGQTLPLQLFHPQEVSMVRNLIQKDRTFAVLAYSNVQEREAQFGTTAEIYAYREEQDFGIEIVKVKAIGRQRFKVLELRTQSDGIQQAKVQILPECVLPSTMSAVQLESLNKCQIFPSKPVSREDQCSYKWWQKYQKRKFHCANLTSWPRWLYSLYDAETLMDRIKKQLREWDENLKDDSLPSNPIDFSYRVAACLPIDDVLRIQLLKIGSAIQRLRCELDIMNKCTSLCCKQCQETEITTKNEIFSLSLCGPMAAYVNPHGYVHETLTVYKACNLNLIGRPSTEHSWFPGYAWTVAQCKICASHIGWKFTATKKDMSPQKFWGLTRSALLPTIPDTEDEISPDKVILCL

[2] = tested on: Protein cereblon/Androgen receptor (Homo sapiens), P10275+Q96SW2 [UNDEFINED MUTATION]; test: PROTAC activity at CRBN/Androgen receptor splice variant 7 in human 22Rv1 cells assessed as induction of AR-V7 degradation at 0.01 uM incubated for 24 hrs by Western blot analysis relative to control; type: cell-based
[3] = biological target: T1, Protein cereblon/Androgen receptor (Homo sapiens, UniProt P10275+Q96SW2); test: PROTAC activity at CRBN/AR in human 22Rv1 cells assessed as induction of AR degradation at 20 nM incubated for 6 hrs by Western blot analysis (reference value: 0 %); type: cell-based
T1 sequence (P10275 whole entry, looked up): as the sequence (P10275 whole entry, looked up, stated change not applied, canonical isoform) above
T1 sequence (Q96SW2 whole entry, looked up): as the sequence (Q96SW2 whole entry, looked up, stated change not applied, canonical isoform) above

[4] = biological target: Protein cereblon/Zinc finger protein Helios (Homo sapiens) (UniProt Q96SW2+Q9UKS7); test: Molecular glue activity at CRBN/IKZF2 in human 22Rv1 cells assessed as induction of IKZF2 degradation at 3 uM incubated for 6 hrs by Western blot analysis; type: cell-based
Chain of Protein cereblon/Zinc finger protein Helios (Homo sapiens) (Q96SW2 whole entry, looked up): as the sequence (Q96SW2 whole entry, looked up, stated change not applied, canonical isoform) above
Chain of Protein cereblon/Zinc finger protein Helios (Homo sapiens) (Q9UKS7 whole entry, looked up): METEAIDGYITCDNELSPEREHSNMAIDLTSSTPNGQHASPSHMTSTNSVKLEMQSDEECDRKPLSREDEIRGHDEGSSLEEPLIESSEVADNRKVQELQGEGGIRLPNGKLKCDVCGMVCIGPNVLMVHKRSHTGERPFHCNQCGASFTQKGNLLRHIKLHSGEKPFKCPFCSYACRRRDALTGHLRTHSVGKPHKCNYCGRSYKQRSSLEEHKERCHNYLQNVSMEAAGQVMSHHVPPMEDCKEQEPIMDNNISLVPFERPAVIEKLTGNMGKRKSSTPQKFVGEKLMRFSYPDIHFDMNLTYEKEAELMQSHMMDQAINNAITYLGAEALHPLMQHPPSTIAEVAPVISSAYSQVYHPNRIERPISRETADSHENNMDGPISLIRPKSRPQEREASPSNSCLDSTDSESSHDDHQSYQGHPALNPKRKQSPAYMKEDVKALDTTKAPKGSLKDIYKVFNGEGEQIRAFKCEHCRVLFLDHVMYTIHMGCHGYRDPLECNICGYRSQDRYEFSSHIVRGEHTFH

LNCaP = test: Induction of apoptosis in human LNCaP cells assessed as increase in cleaved PARP expression incubated for 24 hrs by Western blot analysis; type: functional, cell-based; settings: dose 1-100 nM
[5] = biological target: Protein cereblon/Eukaryotic peptide chain release factor GTP-binding subunit ERF3A (Homo sapiens, UniProt Q96SW2+P15170); test: Molecular glue activity at CRBN/GSPT1 in human VCaP cells assessed as induction of GSPT1 degradation incubated for 24 hrs by Western blot analysis; type: cell-based
[6] = tested on: Protein cereblon/Androgen receptor (Homo sapiens), P10275+Q96SW2 [UNDEFINED MUTATION]; test: PROTAC activity at CRBN/Androgen receptor splice variant 7 in human VCaP cells assessed as induction of AR-V7 degradation at 0.1 uM incubated for 24 hrs by Western blot analysis relative to control; type: cell-based
[7] = Antiproliferative activity against human Enzalutamide-resistant VCaP cells assessed as cell growth inhibition incubated for 72 hrs by Celltiter-lumi luminescent cell viability assay; type: functional, cell-based
[8] = biological target: T1, Protein cereblon/Androgen receptor; test: PROTAC activity at CRBN/AR in human 22Rv1 cells assessed as induction of AR degradation at 50 nM preincubated with MG132 followed by compound addition and measured after 12 hrs by Western blot analysis; type: cell-based
[9] = tested on: Protein cereblon/Androgen receptor (Homo sapiens), P10275+Q96SW2 [UNDEFINED MUTATION]; test: PROTAC activity at CRBN/Androgen receptor splice variant 7 in human 22Rv1 cells assessed as induction of AR-V7 degradation at 20 nM incubated for 1 hrs by Western blot analysis (reference value: 0%); type: cell-based
[10] = biological target: T1, Protein cereblon/Androgen receptor; test: PROTAC activity at CRBN/AR in human LNCaP cells assessed as induction of AR degradation at 20 nM by Western blot analysis; type: cell-based; settings: time 1-36 hrs
CWR22R [11] = test: Antiproliferative activity against AR-dependent human 22Rv1 cells assessed as cell growth inhibition incubated for 72 hrs by Celltiter-lumi luminescent cell viability assay; type: functional, cell-based; settings: 22Rv1, 72 h
[12] = tested on: Protein cereblon/Androgen receptor (Homo sapiens), P10275+Q96SW2 [UNDEFINED MUTATION]; test: PROTAC activity at CRBN/Androgen receptor splice variant 7 in human 22Rv1 cells assessed as induction of AR-V7 degradation at 20 nM incubated for 2 hrs by Western blot analysis (reference value: 0%); type: cell-based
[13] = tested on: Protein cereblon/Androgen receptor (Homo sapiens), P10275+Q96SW2 [UNDEFINED MUTATION]; test: PROTAC activity at CRBN/Androgen receptor splice variant 7 in human 22Rv1 cells assessed as induction of AR-V7 degradation at 20 nM incubated for 12 hrs by Western blot analysis (reference value: 0%); type: cell-based
[14] = biological target: Protein cereblon/Sal-like protein 4 (Homo sapiens) (UniProt Q96SW2+Q9UJQ4); test: Molecular glue activity at CRBN/SALL4 in human 22Rv1 cells assessed as induction of SALL4 degradation at 1 uM incubated for 6 hrs by Western blot analysis; type: cell-based
Chain of Protein cereblon/Sal-like protein 4 (Homo sapiens) (Q96SW2 whole entry, looked up): as the sequence (Q96SW2 whole entry, looked up, stated change not applied, canonical isoform) above
Chain of Protein cereblon/Sal-like protein 4 (Homo sapiens) (Q9UJQ4 whole entry, looked up): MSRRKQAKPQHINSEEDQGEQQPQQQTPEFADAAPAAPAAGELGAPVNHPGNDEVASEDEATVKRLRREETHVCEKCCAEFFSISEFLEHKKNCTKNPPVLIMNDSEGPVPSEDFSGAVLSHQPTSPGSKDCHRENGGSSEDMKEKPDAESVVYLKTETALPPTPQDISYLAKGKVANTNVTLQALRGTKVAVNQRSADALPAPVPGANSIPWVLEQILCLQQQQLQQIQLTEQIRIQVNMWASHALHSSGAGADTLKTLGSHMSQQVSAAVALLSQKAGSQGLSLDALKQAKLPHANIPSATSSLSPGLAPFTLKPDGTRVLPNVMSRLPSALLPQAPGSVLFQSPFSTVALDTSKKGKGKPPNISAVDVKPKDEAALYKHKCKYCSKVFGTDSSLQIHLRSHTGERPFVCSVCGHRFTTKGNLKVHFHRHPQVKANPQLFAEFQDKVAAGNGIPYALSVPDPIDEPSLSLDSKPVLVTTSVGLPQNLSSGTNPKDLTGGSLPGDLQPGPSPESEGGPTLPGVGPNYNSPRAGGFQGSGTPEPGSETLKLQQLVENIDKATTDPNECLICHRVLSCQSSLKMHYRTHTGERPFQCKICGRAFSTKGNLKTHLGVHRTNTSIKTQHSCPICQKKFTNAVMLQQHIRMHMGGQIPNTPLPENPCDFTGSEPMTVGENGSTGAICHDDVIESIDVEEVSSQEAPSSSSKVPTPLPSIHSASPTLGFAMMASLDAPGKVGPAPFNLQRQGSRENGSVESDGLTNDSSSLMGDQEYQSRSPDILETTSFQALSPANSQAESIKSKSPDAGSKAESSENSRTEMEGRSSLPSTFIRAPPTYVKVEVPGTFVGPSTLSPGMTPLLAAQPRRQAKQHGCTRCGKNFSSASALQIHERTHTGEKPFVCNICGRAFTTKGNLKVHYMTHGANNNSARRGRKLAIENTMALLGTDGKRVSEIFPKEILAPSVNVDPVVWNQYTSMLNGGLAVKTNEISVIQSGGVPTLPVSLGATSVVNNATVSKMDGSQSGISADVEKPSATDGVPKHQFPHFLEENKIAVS

[15] = biological target: T1, Protein cereblon/Androgen receptor; test: PROTAC activity at CRBN/AR in human Enzalutamide-resistant VCaP cells assessed as induction of androgen receptor degradation at 1 to 300 nM by Western blot analysis; type: cell-based; settings: dose 1-300 nM
CWR22R [16] = test: Downregulation of MT-ATP8 gene expression in human 22Rv1 cells at 3 nM incubated for 24 hrs by Volcano plot analysis; type: functional, cell-based
[17] = biological target: T1, Protein cereblon/Androgen receptor; test: PROTAC activity at CRBN/AR in human 22Rv1 cells assessed as decrease in TMPRSS2 protein level incubated for 24 hrs by Western blot analysis; type: cell-based; settings: dose 1-10 nM
[18] = biological target: T1, Protein cereblon/Androgen receptor; test: PROTAC activity at CRBN/AR in human LNCaP cells assessed as decrease in FKBP5 mRNA level at 10 to 100 nM incubated for 24 hrs by qRT-PCR analysis; type: cell-based; settings: dose 10-100 nM
[19] = Selectivity ratio of IC50 for antiproliferative activity against AR-independent human DU-145 cells assessed as cell growth inhibition to IC50 for antiproliferative activity against AR-dependent human LNCaP cells assessed as cell growth inhibition; type: functional
[20] = tested on: Protein cereblon/Androgen receptor (Homo sapiens), P10275+Q96SW2 [UNDEFINED MUTATION]; test: PROTAC activity at CRBN/Androgen receptor splice variant 7 in human VCaP cells assessed as induction of AR-V7 degradation at 0.01 uM incubated for 24 hrs by Western blot analysis relative to control; type: cell-based
[21] = tested on: Protein cereblon/Androgen receptor (Homo sapiens), P10275+Q96SW2 [UNDEFINED MUTATION]; test: PROTAC activity at CRBN/Androgen receptor splice variant 7 in human Enzalutamide-resistant LNCaP cells assessed as induction of AR-V7 degradation at 1 to 300 nM by Western blot analysis; type: cell-based; settings: dose 1-300 nM
[22] = biological target: T1, Protein cereblon/Androgen receptor; test: PROTAC activity at CRBN/AR in human 22Rv1 cells assessed as induction of AR degradation at 20 nM incubated for 18 hrs by Western blot analysis (reference value: 0 %); type: cell-based
Mus musculus = test: In vivo inhibition of AR transcriptional activity in male NOD SCID mouse model xenografted with human LNCaP cells assessed as reduction in PSA level in tumor at 20 mg/kg, po administered daily for 26 days by ELISA; type: functional, organism-based; settings: time 26.0 day
[23] = biological target: T1, Protein cereblon/Androgen receptor; test: PROTAC activity at CRBN/AR in human VCaP cells assessed as induction of AR degradation at 0.1 uM incubated for 24 hrs by Western blot analysis relative to control; type: cell-based
[24] = biological target: Protein cereblon/Zinc finger protein Aiolos (Homo sapiens) (UniProt Q96SW2+Q9UKT9); test: Molecular glue activity at CRBN/IKZF3 in human 22Rv1 cells assessed as induction of IKZF3 degradation at 1 uM incubated for 6 hrs by Western blot analysis; type: cell-based
Chain of Protein cereblon/Zinc finger protein Aiolos (Homo sapiens) (Q96SW2 whole entry, looked up): as the sequence (Q96SW2 whole entry, looked up, stated change not applied, canonical isoform) above
Chain of Protein cereblon/Zinc finger protein Aiolos (Homo sapiens) (Q9UKT9 whole entry, looked up): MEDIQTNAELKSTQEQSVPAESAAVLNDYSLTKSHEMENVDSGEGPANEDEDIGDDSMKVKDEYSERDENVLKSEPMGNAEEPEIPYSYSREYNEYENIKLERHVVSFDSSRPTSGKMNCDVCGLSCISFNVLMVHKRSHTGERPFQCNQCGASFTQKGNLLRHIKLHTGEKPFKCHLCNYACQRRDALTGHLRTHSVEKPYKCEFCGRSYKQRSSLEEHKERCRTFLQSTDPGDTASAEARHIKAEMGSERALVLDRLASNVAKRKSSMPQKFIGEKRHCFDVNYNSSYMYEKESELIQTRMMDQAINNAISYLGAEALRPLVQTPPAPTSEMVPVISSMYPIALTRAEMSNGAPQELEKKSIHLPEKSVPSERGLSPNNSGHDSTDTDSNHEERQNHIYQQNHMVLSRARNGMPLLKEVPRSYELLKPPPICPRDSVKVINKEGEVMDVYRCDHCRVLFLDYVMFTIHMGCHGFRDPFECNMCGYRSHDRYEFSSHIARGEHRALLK

[25] = biological target: T1, Protein cereblon/Androgen receptor; test: PROTAC activity at CRBN/AR in human 22Rv1 cells assessed as induction of AR degradation at 50 uM preincubated with thalidomide followed by compound addition and measured after 12 hrs by Western blot analysis; type: cell-based
[26] = biological target: T1, Protein cereblon/Androgen receptor; test: PROTAC activity at CRBN/AR in human 22Rv1 cells assessed as decrease in FKBP51 protein level incubated for 24 hrs by Western blot analysis; type: cell-based; settings: dose 1-10 nM
CWR22R [27] = test: Upregulation of ribosome-related pathway gene expression in human 22Rv1 cells at 3 nM incubated for 24 hrs by GSEA analysis; type: functional, cell-based
[28] = Toxicity in male NOD SCID mouse model xenografted with human LNCaP cells assessed as body weight loss at 20 mg/kg, po administered daily for 26 days; type: organism-based; settings: in vivo, 624 h, time 26 day
CWR22R [29] = test: Downregulation of CCNB1IP1 gene expression in human 22Rv1 cells at 3 nM incubated for 24 hrs by Volcano plot analysis; type: functional, cell-based

COc1ccc(C(C)(C)c2cc(Cl)c(OCC3CCN(C(=O)CCCCCNc4ccc5c(c4)C(=O)N(C4CCC(=O)NC4=O)C5=O)CC3)c(C#N)c2)cc1 (configuration not stated)
Activity [1]: inactive | Activity [2]: 65.7% | Activity [3]: 49.7% | Activity [4]: Moderate_effect | Activity (LNCaP): Dose-dependent-effect | Activity [5]: Dose-dependent-effect | DC50 [5]: 0.6 nM | Activity [6]: 81.3% | pIC50 [7]: 8.16 | Activity [8]: inactive | Activity [9]: 13.3% | Activity [10]: Time-dependent-effect | pIC50 (CWR22R [11]): 8.96 | Activity [12]: 21.8% | Activity [13]: 56.6% | Activity [14]: inactive | Activity [15]: Active | Activity (CWR22R [16]): Active | Activity [17]: Dose-dependent-effect | Activity [18]: Active | Ratio IC50 [19]: 315 | Activity [20]: 85.1% | Activity [21]: Active | Activity [22]: 84.1% | inhibition (Mus musculus): Active; Superior Activity Than Enzalutamide Treatment Group Observed | Activity [23]: 92.2% | Activity [24]: inactive | Activity [25]: inactive | Activity [26]: Dose-dependent-effect | Activity (CWR22R [27]): Active | Activity [28]: Non-toxic | Activity (CWR22R [29]): Active
